Experimental data: US12281363B2, “Methods for detecting antiviral-drug resistant virus” (Secretary of State for Health and Social Care, priority 2018, dated 2025)
Read-outs that look alike come from different tables or passages of the source.

Tested on: HSV-1
Test: Plaque reduction assay, HSV-1 clinical isolates on Vero cells
Format: cell-based
Conditions: Human alphaherpesvirus 1, Vero
Excerpt: Viral isolates were used to infect a sub-confluent monolayer of Vero cells at a concentration of 75 or 50 plaque forming units (PFU) per well for HSV-1 and HSV-2, respectively. […] CMC medium typically used to create a semisolid interface and prevents indiscrimate viral spreading. Other materials (e.g. agar) may also be used to create this interface.
Cells were fixed with 10% formalin and stained with crystal violet before enumeration of the plaques (microscopic observation or use of fluorescent antibodies for detection is also suitable). The data obtained from these experiments were then expressed as percent inhibition of viral infectivity relative to the no drug control.
Definitions of phenotypic drug susceptibility classification as sensitive or resistant were as follows: ACV, <3 μM or >40 μM; PCV, <10 μM or >40 μM; CDV, <24 μM or >30 μM; FOS, <250 μM or >400 μM; and ACV, <6.5 μM or >40 μM; PCV, <38 μM or >40 μM; FOS, <250 μM or >400 μM for HSV-1 and HSV-2, respectively. Any IC50 values falling in between these sensitive and resistant cut-offs were reported as intermediate resistance.
The phenotype (i.e. reactivity to a drug) of the virus was characterised by the plaque reduction assay as described above.

## Nc1ccn(C[C@@H](CO)OCP(=O)(O)O)c(=O)n1 [Cidofovir, cidofovir]
Isolate HPG032, HSV-1 TK 183* (437_438insA), read-out: Drug susceptibility Cidofovir (CDV)
  IC50: < 24 µM
Isolate HPG033, HSV-1 TK I358L (1072A>C), also TK T287M, read-out: Drug susceptibility (IC50 value)
  IC50: 15 µM
Isolate HPG033, HSV-1 TK I358L (1072A>C), also TK T287M, read-out: Drug susceptibility Cidofovir (CDV)
  IC50: < 24 µM
Isolate HPG033, HSV-1 pol N1046T (3137A>C), also TK T287M, pol A1169T, read-out: Drug susceptibility (IC50 value)
  IC50: 15 µM
Isolate HPG033, HSV-1 pol N1046T (3137A>C), also TK T287M, pol A1169T, read-out: Drug susceptibility Cidofovir (CDV)
  IC50: < 24 µM
Isolate HPG035, HSV-1 pol S239L (716C>T), also pol S724N, read-out: Drug susceptibility (IC50 value)
  IC50: 39.6 µM
Isolate HPG035, HSV-1 pol S239L (716C>T), also pol S724N, read-out: Drug susceptibility Cidofovir (CDV)
  IC50: > 30 µM
Isolate HPG037, HSV-1 TK L69M (205>A), also TK Y239H, read-out: Drug susceptibility Cidofovir (CDV)
  IC50: < 24 µM
Isolate HPG037, HSV-1 TK R256W (766C>T), read-out: Drug susceptibility (IC50 value)
  IC50: 4.39 µM
Isolate HPG037, HSV-1 TK R256W (766C>T), read-out: Drug susceptibility Cidofovir (CDV)
  IC50: < 24 µM
Isolate HPG037, HSV-1 TK Y239H (715T>C), read-out: Drug susceptibility (IC50 value)
  IC50: 4.39 µM
Isolate HPG037, HSV-1 TK Y239H (715T>C), read-out: Drug susceptibility Cidofovir (CDV)
  IC50: < 24 µM
Isolate HPG039, HSV-1 TK 85* or H58fs (169delC, 170delC, 171delC, or 172delC), read-out: Drug susceptibility (IC50 value)
  IC50: 2.97 µM
Isolate HPG039, HSV-1 TK 85* or H58fs (169delC, 170delC, 171delC, or 172delC), read-out: Drug susceptibility Cidofovir (CDV)
  IC50: < 24 µM
Isolate HPG040, HSV-1 pol S911N (2732G>A), also TK deletion (C) nt 896-900, pol A1169T, read-out: Drug susceptibility (IC50 value)
  IC50: 11.3 µM
Isolate HPG040, HSV-1 pol S911N (2732G>A), also TK deletion (C) nt 896-900, pol A1169T, read-out: Drug susceptibility Cidofovir (CDV)
  IC50: < 24 µM
Isolate HPG041, HSV-1 pol S911N (2732G>A), also pol A1169T, read-out: Drug susceptibility (IC50 value)
  IC50: 18 µM
Isolate HPG041, HSV-1 pol S911N (2732G>A), also pol A1169T, read-out: Drug susceptibility Cidofovir (CDV)
  IC50: < 24 µM
Isolate HPG042, HSV-1 pol A972V (2915C>T), also TK deletion (C) nt 881-885, pol A1169T, read-out: Drug susceptibility (IC50 value)
  IC50: < 1.56 µM
Isolate HPG042, HSV-1 pol A972V (2915C>T), also TK deletion (C) nt 881-885, pol A1169T, read-out: Drug susceptibility Cidofovir (CDV)
  IC50: < 24 µM
Isolate HPG042, HSV-1 pol G22R (64G>A), also TK deletion (C) nt 881-885, pol A1169T, read-out: Drug susceptibility (IC50 value)
  IC50: < 1.56 µM
Isolate HPG042, HSV-1 pol G22R (64G>A), also TK deletion (C) nt 881-885, pol A1169T, read-out: Drug susceptibility Cidofovir (CDV)
  IC50: < 24 µM
Isolate HPG043, HSV-1 TK 183* (437_438insA), read-out: Drug susceptibility (IC50 value)
  IC50: 1.65 µM
Isolate HPG043, HSV-1 TK 183* (437_438insA), read-out: Drug susceptibility Cidofovir (CDV)
  IC50: < 24 µM
Isolate HPG045, HSV-1 TK L49R (146T>G), read-out: Drug susceptibility (IC50 value)
  IC50: < 1.56 µM
Isolate HPG045, HSV-1 TK L49R (146T>G), read-out: Drug susceptibility Cidofovir (CDV)
  IC50: < 24 µM
Isolate HPG045, HSV-1 pol L419I (1255C>A), also TK L49R, pol A1169T, read-out: Drug susceptibility (IC50 value)
  IC50: < 1.56 µM
Isolate HPG045, HSV-1 pol L419I (1255C>A), also TK L49R, pol A1169T, read-out: Drug susceptibility Cidofovir (CDV)
  IC50: < 24 µM
Isolate HPG046, HSV-1 TK I166N (497T>A), read-out: Drug susceptibility (IC50 value)
  IC50: 2.1 µM
Isolate HPG046, HSV-1 TK I166N (497T>A), read-out: Drug susceptibility Cidofovir (CDV)
  IC50: < 24 µM
Isolate HPG047, HSV-1 pol E680 (2039A>C), also TK deletion (C) nt 548-553, pol A1169T, read-out: Drug susceptibility Cidofovir (CDV)
  IC50: < 24 µM
Isolate HPG051, HSV-1 pol D83A (248A>C), also TK R176stop, read-out: Drug susceptibility (IC50 value)
  IC50: 4.94 µM
Isolate HPG051, HSV-1 pol D83A (248A>C), also TK R176stop, read-out: Drug susceptibility Cidofovir (CDV)
  IC50: < 24 µM
Isolate HPG052, HSV-1 TK Q34* (100C>T), read-out: Drug susceptibility (IC50 value)
  IC50: 4.77 µM
Isolate HPG052, HSV-1 TK Q34* (100C>T), read-out: Drug susceptibility Cidofovir (CDV)
  IC50: < 24 µM
Isolate HPG053, HSV-1 pol L802R + A834S (2405T>G, 2500G>T), also TK R176W, read-out: Drug susceptibility Cidofovir (CDV)
  IC50: < 24 µM
Isolate HPG053, HSV-1 pol S911N (2732G>A), also TK R176W, pol A1169T, read-out: Drug susceptibility (IC50 value)
  IC50: 7.72 µM
Isolate HPG053, HSV-1 pol S911N (2732G>A), also TK R176W, pol A1169T, read-out: Drug susceptibility Cidofovir (CDV)
  IC50: < 24 µM
Isolate HPG054, HSV-1 pol E992K (2974G>A), also TK insert (G) nt 430-436, pol A1169T, read-out: Drug susceptibility (IC50 value)
  IC50: 3.85 µM
Isolate HPG054, HSV-1 pol E992K (2974G>A), also TK insert (G) nt 430-436, pol A1169T, read-out: Drug susceptibility Cidofovir (CDV)
  IC50: < 24 µM
Isolate HPG055, HSV-1 TK V204G (611T>G), also pol A1169AT, read-out: Drug susceptibility (IC50 value)
  IC50: < 1.56 µM
Isolate HPG055, HSV-1 TK V204G (611T>G), also pol A1169AT, read-out: Drug susceptibility Cidofovir (CDV)
  IC50: < 24 µM
read-out: Drug susceptibility (IC50 value), isolate HPG005, HSV-1 TK A192T (574G>A)
  IC50: 2.21 µM
read-out: Drug susceptibility (IC50 value), isolate HPG006, HSV-1 pol G121S (361G>A), also a TK resistance mutation (footnote a)
  IC50: 6.14 µM
read-out: Drug susceptibility (IC50 value), isolate HPG012, HSV-1 pol G985E (2954G>A), also TK A93V
  IC50: 2.84 µM
read-out: Drug susceptibility (IC50 value), isolate HPG016, HSV-1 pol A1169T (3505G>A)
  IC50: 16.5 µM
read-out: Drug susceptibility (IC50 value), isolate HPG037, HSV-1 TK L69M (205>A), also TK Y239H
  IC50: 4.39 µM
read-out: Drug susceptibility (IC50 value), isolate HPG042, HSV-1 TK frameshift (881delC to 885delC)
  IC50: < 1.56 µM
read-out: Drug susceptibility (IC50 value), isolate HPG047, HSV-1 pol E680 (2039A>C), also TK deletion (C) nt 548-553, pol A1169T
  IC50: 2.88 µM
read-out: Drug susceptibility Cidofovir (CDV), isolate HPG005, HSV-1 TK A192T (574G>A)
  IC50: < 24 µM
read-out: Drug susceptibility Cidofovir (CDV), isolate HPG006, HSV-1 pol G121S (361G>A), also a TK resistance mutation (footnote a)
  IC50: < 24 µM
read-out: Drug susceptibility Cidofovir (CDV), isolate HPG012, HSV-1 pol G985E (2954G>A), also TK A93V
  IC50: < 24 µM
read-out: Drug susceptibility Cidofovir (CDV), isolate HPG016, HSV-1 pol A1169T (3505G>A)
  IC50: < 24 µM
read-out: Drug susceptibility Cidofovir (CDV), isolate HPG042, HSV-1 TK frameshift (881delC to 885delC)
  IC50: < 24 µM
